Key:
[1] = Phase 1/2a study, safety and adverse events (CTCAE v5); assay type: in vivo, human
Source text: This is a Phase 1/2a, open-label, multicenter, first-in-human trial to evaluate the safety and tolerability, PK, PD, and preliminary efficacy of CLN-081 in patients with non-small cell lung cancer (NSCLC) harboring epidermal growth factor receptor (EGFR) exon 20 insertion mutations.
DLTs will be determined based on the incidence and intensity of AEs related to CLN-081 (excluding toxicities clearly related to disease progression or other inter-current illness) as defined below. Dose escalation decisions will be determined based on DLT that occur during the 21 days after initiation of CLN-081 dosing. AEs meeting the definition of a DLT that are observed after 21 days will be made available to the SRC in case a pattern of late toxicity emerges. Toxicity will be graded by the Common Toxicity Criteria for Adverse Events (CTCAE) v5.0. Patients who experience AEs meeting the criteria for DLT should pause treatment with CLN-081 pending management and resolution of the event, and assessment of the relationship of the AE to CLN-081 administration.
Safety and tolerability will be assessed by the incidence and severity of AEs as determined by CTCAE v5.

[2] = tested on: subcutaneously-implanted tumors expressing EGFR with G719A+T790M mutations; settings: cited from earlier work
[3] = tested on: phosphorylation of EGFR and its downstream effectors; settings: cited from earlier work
[4] = tested on: mutant EGFRs that possess mutations in exon 18 or exon 21; settings: cited from earlier work
[5] = 44/45 patients, all dose levels
[6] = G719A, G719S, G719C, E709K, E709A, L861Q

C=CC(=O)N[C@H]1C=C(C)c2c(-c3cnc4ccccc4c3)c3c(N)ncnc3n2C1 [Compound 1, (S)—N-(4-amino-6-methyl-5-(quinolin-3-yl)-8,9-dihydropyrimido[5,4-b]indolizin-8-yl)acrylamide]
patients with treatment-related discontinuations ([1]; 4 patients): 9% | patients requiring dose reductions ([1]; 5 patients): 11% | patients who experienced Gr ≥3 TRAEs ([1]; 8/45 patients, all dose levels): 18% | patients who experienced grade ≥3 AEs ([1]; 20/45 patients, all dose levels): 44% | patients who experienced a treatment related adverse event (TRAE), irrespective of grade [1, 5]: 98% | patients who experienced an adverse event (AE), irrespective of grade or attribution [1, 5]: 98% | patients with dose limiting toxicity (DLT) ([1]; Gr 3 diarrhea at 150 mg BID, the highest dose cohort, listed as CLN-081): One and one | Grade ≥3 TRAEs in all patients: Anemia, % ([1]; N = 45): 9% | Grade ≥3 TRAEs in all patients: Diarrhea, % ([1]; N = 45): 2% | Grade ≥3 TRAEs in all patients: Increased ALT, % ([1]; N = 45): 4% | Grade ≥3 TRAEs in all patients: Increased AST, % ([1]; N = 45): 4% | Grade ≥3 TRAEs in all patients: Increased Amylase, % ([1]; N = 45): 2% | Grade ≥3 TRAEs in all patients: Neutropenia, % ([1]; N = 45): 2% | Grade ≥3 TRAEs in all patients: Stomatitis, % ([1]; N = 45): 2% | patients with Gr ≥3 treatment-related rash ([1]; all dose levels): no patients | patients with treatment-related Gr 3 diarrhea ([1]; all dose levels): one | TRAEs in ≥15% of patients: Anemia, % ([1]; any grade, N = 45): (18) % | TRAEs in ≥15% of patients: Diarrhea, % ([1]; any grade, N = 45): (22) % | TRAEs in ≥15% of patients: Dry Skin, % ([1]; any grade, N = 45): (16) % | TRAEs in ≥15% of patients: Increased AST, % ([1]; any grade, N = 45): (16) % | TRAEs in ≥15% of patients: Nausea, % ([1]; any grade, N = 45): (18) % | TRAEs in ≥15% of patients: Paronychia, % ([1]; any grade, N = 45): (22) % | TRAEs in ≥15% of patients: Rash, % ([1]; any grade, N = 45): (76) % | TRAEs in ≥15% of patients: Stomatitis, % ([1]; any grade, N = 45): (18) % | diarrhea compared to historical experience with other EGFR inhibitors ([1]; in vivo): reduced frequency and severity of diarrhea | most common AEs, regardless of attribution or grade ([1]; in vivo): rash, anemia and diarrhea | safety profile ([1]; in vivo): acceptable safety profile | safety profile at efficacious dose levels compared to other TKIs targeting EGFR exon 20 insertion mutations ([1]; in vivo): superior safety profile | patients who discontinued due to treatment-related Gr 2 pneumonitis ([1]; patient had also experienced pneumonitis on osimertinib): one | tumor growth inhibition ([2]; dose-dependent): significant tumor growth inhibition effects | body weight loss, fecal abnormalities, or skin abnormalities ([2]; mouse, in vivo): not effected at a cost of body weight loss, fecal abnormalities, or skin abnormalities | in vivo inhibitory effect on the phosphorylation of EGFR and its downstream effectors ([3]; human lung cancer xenografts harboring EGFR exon 20 insertions): potent and durable in vivo inhibitory effect | effect on skin tissue with WT EGFR ([3]; in vivo): spares skin tissue with WT EGFR | inhibition against EGFRs harboring T790M and either exon 18 or exon 21 mutations ([4]; G719A+T790M, L861Q+T790M): intensive inhibition | activity compared with erlotinib and osimertinib [4, 6]: higher | potency in inhibiting the phosphorylation of mutant EGFRs [4, 6]: intensive cellular potency

— patent US20230372346A1, “TREATMENT REGIMENS FOR EXON-20 INSERTION MUTANT EGFR CANCERS” (CULLINAN PEARL CORP., priority 2020, published 2023)
